Experimental data: US11530211B2, “Dihydroindolizinone derivative” (DAIICHI SANKYO COMPANY, LIMITED, priority 2018, dated 2022)
Read-outs that look alike come from different tables or passages of the source.

Legend:
[1] = test system: human iPS cell Toe strain; test: Effect to promote differentiation from human iPS cells into insulin-producing cells (insulin-positive cell rate, imaging); type: cell-based; parameters: key to Activity: +: the sum of activity values at the two concentrations was obviously higher than the control untreated with compounds while being lower than the positive control; ++: the sum was equivalent to the positive control; +++: the sum was higher than the positive control; settings: for EC50: efficacy of 10 μM of the compound of Example 1 taken as 100%, 0.01 to 10 μM, read-out: E050; for Activity: sum of activity values at 2 μM and 10 μM compared with positive control (compound of Example 1), added at stages 3 to 5
From the text: The evaluation system of the effect (efficacy) to promote differentiation from human iPS cells into insulin-producing cells was constructed with reference to known information (Non Patent Document 6). Further, the medium used in each differentiation stage was also produced with reference to known information (differentiation media A to E (Media A to E) described in Non Patent Document 6 were used respectively for stages 1 to 5; however, a medium free from GLP-1 receptor agonist and nicotinamide was used as differentiation medium E).
In order to evaluate the efficacy of each compound, the compound of Example 1 was used as a positive control, and dimethylsulfoxide (DMSO) (SIGMA, D2650) with a final concentration of 0.1% was used as a control untreated with compounds. […] In the following evaluation, the compound solutions were added to the medium to 0.1% that is the final concentration of DMSO. First, induction from human iPS cell Toe strain (National Institutes of Biomedical Innovation, Health and Nutrition) into cells on day 7 of culture (2 days after replacement with differentiation medium C (cells in the differentiation process from FOXA2-positive primitive gut tube cells into PDX1-positive pancreatic progenitor cells)) was performed according to the method of Non Patent Document 6 for “inducing differentiation from human iPS cells into pancreatic β cells”, and the cells were collected and thereafter stored in liquid nitrogen using Bambanker (NIPPON Genetics Co, Ltd.) at 1×10^7 cells/mL/tube, to produce a cell stock for evaluation. The cell stock was dissolved at the start of the evaluation of efficacy, suspended in differentiation medium C for stage 3 (DMEM high glucose (Life technologies, 11965092), 0.25 μM SANT-1, 0.1 μM LDN193189 (Stemgent, 04-0074), 10 μM SB431542, 2 μM Retinoic acid (Stemgent, 04-0021), 1% B27 serum free supplement (Life technologies, 17504044) and thereafter seeded in a 96-well plate (Corning, #3340) coated with Synthemax II (Corning, #5656) at 1×10^5 cells/well. After culturing for 2 days, the medium was removed, and new differentiation medium C for stage 3 with the compound or only DMSO added was added thereto at 100 μL/well. After culturing for 2 days, the medium was removed, and new differentiation medium D for stage 4 (DMEM high glucose, 0.1 μM LDN193189, 5 μM TGF-β type I receptor kinase inhibitor II (Calbiochem 616452), 0.3 μM (−)-indolactam V (Enzo life science ALX-420-011-C300), 1% B27 serum free supplement) with the compound or only DMSO added was added thereto at 100 μL/well. After culturing for 2 to 3 days, the medium was removed, and new differentiation medium E for stage 5 (GLP-1 receptor agonist and nicotinamide-free; Knockout […] (Life technologies, 12660012), 1% B27 serum free supplement) with the compound or only DMSO added was added thereto at 200 μL/well. After culturing for 2 days, the medium was removed, and a 4% paraformaldehyde phosphorus acid buffer (Wako, 163-20145) was added thereto at 150 μL/well and left standing for 30 to 60 minutes at room temperature to fix the cells. A phosphorus acid buffer (PBS) (Takara, T9181) containing 1% Triton X-100 (Sigma, T8787) was left standing for 15 minutes at room temperature, then washed with PBS-T (Takara, T9183), and was blocked for 1 hour using 20% Blocking One (Nacalai tesque, Tokyo, Japan) diluted with PBS-T at room temperature. After the removal of Blocking One, guinea pig anti-insulin antibody (Abcam, ab7842) diluted 200-fold with 20% Blocking One was added thereto at 50 μL/well, followed by standing at 4° C. overnight. After washing with PBS-T 3 times, […]-labeled anti-guinea pig antibody (Life Technologies, A11075) diluted 1000-fold with 20% Blocking One and 6-diamidino-2-phenylindole (DAPI) (Roche Diagnostics, Basel, Switzerland) were added thereto, followed by standing at room temperature for 2 hours. After washing with PBS-T 3 times, the fluorescence images of the cells were analyzed. […]

UCHL1 = target: T1, UCHL1 (Homo sapiens, UniProt P09936); test: Evaluation of UCHL1 activation (ubiquitin-AMC hydrolysis); settings: test compound 10 μM; control (DMSO) = 100; fluorescence increment 10 minutes to 2 hours; n=3
T1 sequence (P09936 1-223): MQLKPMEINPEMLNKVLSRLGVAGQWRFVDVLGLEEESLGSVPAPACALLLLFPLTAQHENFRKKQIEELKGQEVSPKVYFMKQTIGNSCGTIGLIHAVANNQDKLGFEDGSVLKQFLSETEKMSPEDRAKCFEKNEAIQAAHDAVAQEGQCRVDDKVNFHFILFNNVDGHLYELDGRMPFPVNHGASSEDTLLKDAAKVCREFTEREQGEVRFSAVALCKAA
Description: Using dimethylsulfoxide (DMSO) (SIGMA, D2650) as a control untreated with compounds (which will be hereinafter referred to as control), each test compound was dissolved in DMSO in use. DMSO and the test compound solutions were each added to the enzymatic reaction solution to a final concentration of 2%. […] The amount of fluorescence (excitation wavelength: 350 nm and fluorescence wavelength: 440 nm) of AMC generated due to hydrolysis of the fluorescence-labeled substrate was measured 10 minutes and 2 hours after the start of the enzymatic reaction, to calculate the increment in amount of fluorescence by subtraction between the two.
The amount of fluorescence of AMC was measured using Envision (PerkinElmer). The increment in amount of fluorescence of the control was taken as 100%, and the increment in amount of fluorescence of each test compound was expressed as a percentage (%) based on this, to obtain an enzymatic activity value. Enzymatic activity value (%)={(Amount of fluorescence increment of each test compound)/(Amount of fluorescence increment of control)}×100

ZDF disease rats = test: Glucose tolerance test after 4 weeks repeated oral administration in ZDF rats; type: in vivo, rat; settings: 10 mg/kg orally once a day for 4 weeks; Day 28; 60 minutes after 2 g/kg glucose loading minus before loading; male ZDF disease rats
Description: After repeated oral administration of the compound according to Example 9 to 8 week-old male ZDF disease rats (CHARLES RIVER LABORATORIES JAPAN, INC.) for 4 weeks (from Day 1 to 28), a glucose tolerance test was conducted on Day 28 to investigate the effect to improve the pathological conditions of diabetes. On Day 0, the ZDF disease rats were subjected to measurement of blood sugar, insulin value, and body weight, as needed, and were grouped by multivariable block assignment. The experiments were conducted in a total of 3 groups of 4 male ZDF Lean rats (lean group), a group of 8 ZDF disease rats with a 0.5 w/v % methylcellulose 400 solution (which will be hereinafter referred to as 0.5% MC) administered (vehicle group), and a group of 8 ZDF disease rats with the compound of Example 9 administered (Example 9 group). The compound according to Example 9 was suspended in 0.5% MC and was orally administered 10 mg/kg once a day.
The glucose tolerance test was conducted as follows. […] Before the glucose loading and 60 minutes after the glucose loading, blood was collected from the tail vein, and the blood sugar was measured.
The blood sugar was measured using glucose C2-Test Wako (Cat No. 437-90902 for 700 times, available from Wako Pure Chemical Industries, Ltd).

| Compound | EC50 ([1]; Homo sapiens) [nM] | also measured |
| --- | --- | --- |
| O=C1CCC(C(=O)Nc2ncc(-c3ccc(C(F)(F)F)cc3)s2)n2cccc21 (centres unmarked) [Example 21, 8-Oxo-N-[5-[4-(trifluoromethyl)phenyl]thiazol-2-yl]-6,7-dihydro-5H-indolizine-5-carboxamide] | 450 |  |
| Cc1ccc(-c2cnc(NC(=O)C3CCC(=O)c4cccn43)s2)cc1 (centres unmarked) [Example 18] |  | Activity [1]: ++ |
| O=C1CCC(C(=O)Nc2ncc(-c3ccc(OC(F)(F)F)c(Cl)c3)s2)n2cccc21 (centres unmarked) [Example 30, N-[5-[3-Chloro-4-(trifluoromethoxy)phenyl]thiazol-2-yl]-8-oxo-6,7-dihydro-5H-indolizine-5-carboxamide] | 1000 |  |
| O=C1CCC(C(=O)Nc2ncc(-c3ccc4c(c3)OC(F)(F)O4)s2)n2cccc21 (centres unmarked) [Example 40, N-[5-(2,2-Difluoro-1,3-benzodioxol-5-yl)thiazol-2-yl]-8-oxo-6,7-dihydro-5H-indolizine-5-carboxamide] | 820 |  |
| O=C1CCC(C(=O)Nc2ncc(-c3ccc(OC(F)(F)F)cc3)s2)n2cccc21 (single isomer, unassigned) [Example 10b] |  | EC50 [1]: 220 nM; Activity [1]: +++ |
| Cc1nc(NC(=O)C2CCC(=O)c3cccn32)sc1-c1ccc(OC(C)(C)C)cc1 (single isomer, unassigned) [Example 101a] |  | Activity [1]: + |
| O=C1CCC(C(=O)Nc2ncc(-c3ccc4ccccc4c3)s2)n2cccc21 (centres unmarked) [Example 24, N-[5-(2-Naphthyl)thiazol-2-yl]-8-oxo-6,7-dihydro-5H-indolizine-5-carboxamide] |  | Activity [1]: + |
| O=C1CCC(C(=O)Nc2ncc(-c3ccccc3)s2)n2cccc21 (centres unmarked) [Example 1, 8-Oxo-N-(5-phenylthiazol-2-yl)-6,7-dihydro-5H-indolizine-5-carboxamide] | 5800 |  |
| O=C1CCC(C(=O)Nc2ncc(-c3ccc(OC(F)(F)F)cc3)s2)n2cccc21 (centres unmarked) [Example 9, 8-Oxo-N-[5-[4-(trifluoromethoxy)phenyl]thiazol-2-yl]-6,7-dihydro-5H-indolizine-5-carboxamide] | 230 | Δ Plasma glucose (ZDF disease rats): -275.8 mg/dL; Enzyme activity (c/o) (UCHL1): 270 c/o |
| Cc1nc(NC(=O)C2CCC(=O)c3cccn32)sc1-c1ccc(OC(C)(C)C)cc1 (centres unmarked) [Example 35, N-[5-(4-tert-Butoxyphenyl)-4-methylthiazol-2-yl]-8-oxo-6,7-dihydro-5H-indolizine-5-carboxamide] | 250 |  |
| O=C1CCC(C(=O)Nc2ncc(-c3ccc(OC(F)(F)F)cc3)s2)n2cccc21 (single isomer, unassigned) [Example 10a] |  | EC50 [1]: 1200 nM; Activity [1]: +++ |
| CC(C)(C)Oc1ccc(-c2cnc(NC(=O)C3CCC(=O)c4cccn43)s2)cc1 (centres unmarked) [Example 11, N-[5-(4-Tert-butoxyphenyl)thiazol-2-yl]-8-oxo-6,7-dihydro-5H-indolizine-5-carboxamide] | 490 |  |
| Cc1nc(NC(=O)C2CCC(=O)c3cccn32)sc1-c1ccc(OC(F)(F)F)cc1 (centres unmarked) [Example 36, N-[4-Methyl-5-[4-(trifluoromethoxy)phenyl]thiazol-2-yl]-8-oxo-6,7-dihydro-5H-indolizine-5-carboxamide] | 310 |  |

Second part, led by results:

| EC50 ([1]; Homo sapiens) [nM] | Compound | also measured |
| --- | --- | --- |
| 190 | O=C1CCC(C(=O)Nc2ncc(-c3ccc(OCc4ccccc4)c(F)c3)s2)n2cccc21 (centres unmarked) [Example 43, N-[5-(4-Benzyloxy-3-fluorophenyl)thiazol-2-yl]-8-oxo-6,7-dihydro-5H-indolizine-5-carboxamide] |  |
| 90 | Cc1nc(NC(=O)C2CCC(=O)c3cccn32)sc1-c1ccc(OC(C)(C)C)cc1 (single isomer, unassigned) [Example 101b] | Activity [1]: +++; Enzyme activity (c/o) (UCHL1): 318 c/o |
| 1800 | CC1(C(=O)Nc2ncc(-c3ccc(OC(F)(F)F)cc3)s2)CCC(=O)c2cccn21 (centres unmarked) [Example 65] |  |
| 240 | Cc1nc(NC(=O)C2CCC(=O)c3cccn32)sc1-c1ccc(OCC(F)(F)F)cc1 (centres unmarked) [Example 88, N-[4-Methyl-5-[4-(2,2,2-trifluoroethoxy)phenyl]thiazol-2-yl]-8-oxo-6,7-dihydro-5H-indolizine-5-carboxamide] | Enzyme activity (c/o) (UCHL1): 422 c/o |
| 1600 | O=C1CC(C(=O)Nc2ncc(-c3ccc(OC(F)(F)F)cc3)s2)n2cccc21 (centres unmarked) [Example 58] |  |
| 540 | O=C1CCC(C(=O)Nc2nc3ccc(-c4ccc(OC(F)(F)F)cc4)cc3s2)n2cccc21 (centres unmarked) [Example 59, 8-Oxo-N-[6-[4-(trifluoromethoxy)phenyl]-1,3-benzothiazol-2-yl]-6,7-dihydro-5H-indolizine-5-carboxamide] |  |
| 290 | O=C1CCC(C(=O)Nc2nc3ccc(-c4ccc(Cl)cc4)cc3s2)n2cccc21 (centres unmarked) [Example 93, N-[6-(4-Chlorophenyl)-1,3-benzothiazol-2-yl]-8-oxo-6,7-dihydro-5H-indolizine-5-carboxamide] |  |
| 130 | O=C1CCC(C(=O)Nc2ncc(-c3ccc(OCC(F)(F)F)cc3)s2)n2cccc21 (centres unmarked) [Example 45, 8-Oxo-N-[5-[4-(2,2,2-trifluoroethoxy)phenyl]thiazol-2-yl]-6,7-dihydro-5H-indolizine-5-carboxamide] |  |
| 540 | O=C1CCC(C(=O)Nc2ncc(-c3ccc(Oc4ccccc4)cc3)s2)n2cccc21 (centres unmarked) [Example 46, 8-Oxo-N-[5-(4-phenoxyphenyl)thiazol-2-yl]-6,7-dihydro-5H-indolizine-5-carboxamide] |  |
